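Five concentrations, 48 hours, 96-well plates. GI50 is the concentration that inhibits growth by half.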 The source made the active and inactive calls. Cut-off read from the data, not from the text of the source: active = GI50 up to about 1.1 µM and inactive = higher.
Columns and labels:
Assay in all cases: NCI-60 cell line screen, 48 h
[1] = tested on: CAKI-1
[2] = tested on: A498
[3] = tested on: ACHN
[4] = tested on: SF-295
[5] = tested on: HT-29
[6] = tested on: SK-MEL-5
[7] = tested on: SW-620
[8] = tested on: MDA-MB-435
[9] = tested on: TK-10
[10] = tested on: LOX IMVI
[11] = tested on: HCT-116
[12] = tested on: HOP-92
[13] = tested on: OVCAR-3
[14] = tested on: Malme-3M
[15] = tested on: EKVX
[16] = tested on: SN12C
[17] = tested on: 786-0
[18] = tested on: IGROV-1
[19] = tested on: NCI-H23
[20] = tested on: MDA-N
[21] = tested on: CCRF-CEM
[22] = tested on: SK-OV-3
[23] = tested on: NCI-H522
[24] = tested on: DU-145
[25] = tested on: UACC-257
[26] = tested on: OVCAR-8
[27] = tested on: MDA-MB-231
[28] = tested on: NCI-H226
[29] = tested on: KM12
[30] = tested on: K562
[31] = tested on: OVCAR-4
[32] = tested on: HOP-62
[33] = tested on: NCI-H460
[34] = tested on: SR
[35] = tested on: SNB-19
[36] = tested on: NCI/ADR-RES
[37] = tested on: SF-268
[38] = tested on: PC-3
[39] = tested on: HL-60
[40] = tested on: HCC 2998
[41] = tested on: OVCAR-5
[42] = tested on: T47D
[43] = tested on: A549
[44] = tested on: MOLT-4
[45] = tested on: Hs-578T
[46] = tested on: COLO 205
[47] = tested on: SNB-75
[48] = tested on: MCF7
[49] = tested on: SK-MEL-28
[50] = tested on: UO-31
[51] = tested on: RXF 393
[52] = tested on: M14
[53] = tested on: SF-539
[54] = tested on: RPMI-8226
[55] = tested on: U-251
[56] = tested on: HCT-15
[57] = tested on: SK-MEL-2
[58] = tested on: UACC-62

Measured: GI50

C/C(=C\CNc1ncnc2[nH]c(Cl)nc12)CO
inactive: [1] > 100 µM | [2] > 100 µM | [3] > 100 µM | [4] > 100 µM | [5] > 100 µM | [6] > 100 µM | [7] > 100 µM | [8] > 100 µM | [9] > 100 µM | [10] > 100 µM | [11] > 100 µM | [12] > 100 µM | [13] > 100 µM | [14] > 100 µM | [15] > 100 µM | [16] > 100 µM | [17] > 100 µM | [18] > 100 µM | [19] > 100 µM | [20] > 100 µM | [21] > 100 µM | [22] > 100 µM | [23] > 100 µM | [24] > 100 µM | [25] > 100 µM | [26] > 100 µM | [27] > 100 µM | [28] > 100 µM | [29] > 100 µM | [30] > 100 µM | [31] > 100 µM | [32] > 100 µM | [33] > 100 µM | [34] > 100 µM | [35] > 100 µM | [36] > 100 µM | [37] > 100 µM | [38] > 100 µM | [39] > 100 µM | [40] > 100 µM | [41] > 100 µM | [42] > 100 µM | [43] > 100 µM | [44] > 100 µM | [45] > 100 µM | [46] > 100 µM | [47] > 100 µM | [48] > 100 µM | [49] > 100 µM | [50] > 100 µM | [51] > 100 µM | [52] > 100 µM | [53] > 100 µM | [54] > 100 µM

CCOC(=O)/C=C(/C(=O)OCC)n1cc(C)c(=O)n(Cc2cn(CCCCOC(C)=O)nn2)c1=O
inactive: [1] 2.84 µM | [3] 5.09 µM | [4] 33.1 µM | [5] 8.05 µM | [6] 25.6 µM | [7] 3.03 µM | [8] 10.7 µM | [9] 4.67 µM | [55] 18.5 µM | [10] 17.7 µM | [11] 22.7 µM | [12] 1.21 µM | [13] 14.7 µM | [15] 10.7 µM | [16] 23.6 µM | [17] 6.49 µM | [18] 15.2 µM | [19] 16.5 µM | [20] 35 µM | [22] > 100 µM | [23] 1.88 µM | [24] 34.4 µM | [25] 19.8 µM | [26] 12.9 µM | [27] 27.6 µM | [28] 18.4 µM | [29] 15.5 µM | [30] 4.14 µM | [31] 19.7 µM | [32] 33.6 µM | [33] 10.7 µM | [34] 4.27 µM | [57] 20.1 µM | [35] 18.8 µM | [36] 23.6 µM | [37] 17.1 µM | [38] 19.7 µM | [40] 18.3 µM | [41] 18.1 µM | [42] 9.46 µM | [43] 27 µM | [44] 5.05 µM | [45] 23.2 µM | [58] 14.7 µM | [46] 3.55 µM | [47] 16.3 µM | [48] 6.3 µM | [49] 13.4 µM | [50] 15.1 µM | [51] 17.6 µM | [53] 4.54 µM | [54] 5.13 µM
4.76 µM: [56]
active: [21] 0.363 µM

CCOC(=O)Cn1c(=O)c2nc(SC)sc2n(CC)c1=S
inactive: [3] > 100 µM | [4] > 100 µM | [5] > 100 µM | [6] > 100 µM | [7] > 100 µM | [8] 1.71 µM | [9] > 100 µM | [55] > 100 µM | [10] > 100 µM | [11] > 100 µM | [12] 82.6 µM | [13] > 100 µM | [14] > 100 µM | [16] > 100 µM | [18] 94 µM | [19] > 100 µM | [20] > 100 µM | [21] > 100 µM | [22] > 100 µM | [23] > 100 µM | [24] > 100 µM | [25] > 100 µM | [26] > 100 µM | [27] > 100 µM | [28] > 100 µM | [29] > 100 µM | [30] > 100 µM | [31] 59.8 µM | [32] > 100 µM | [33] > 100 µM | [34] > 100 µM | [57] > 100 µM | [35] > 100 µM | [36] > 100 µM | [37] > 100 µM | [38] > 100 µM | [39] > 100 µM | [40] > 100 µM | [41] > 100 µM | [42] 61 µM | [43] > 100 µM | [44] > 100 µM | [45] 22.1 µM | [46] > 100 µM | [47] 9.38 µM | [48] > 100 µM | [49] > 100 µM | [50] 14.2 µM | [51] 36.8 µM | [52] 5.78 µM | [53] > 100 µM | [54] > 100 µM
65.5 µM: [56]
active: [17] 0.173 µM
